From PMC7349888, “Synthesis and Evaluation of Dodecaboranethiol Containing Kojic Acid (KA-BSH) as a Novel Agent for Boron Neutron Capture Therapy” (Cells, 2020)
pIC50: −log10 of the molar value. Several values for one entry are separate records, joined by “and”; a condition that tells them apart may be missing. Equal entries are not always repeated.

Assays:
[1] = test system: F98 rat glioma cells; test: In vitro 10B uptake in F98 cells (ICP-AES); format: cell-based; conditions: 24 h incubation in DMEM with 1 mM boron compound
Experimental: For the in vitro ^10B uptake study, B16 mouse melanoma cells, C6 rat glioma cells, and F98 rat glioma cells were used. B16 and C6 cells were used for in vitro testing at Osaka Prefecture University. Based on results from initial in vitro screening, the in vitro ^10B uptake study using F98 glioma cells were performed at Osaka Medical College. Four hundred thousand cells were seeded in a tissue culture dish (100 × 20 mm; Becton Dickinson, Franklin Lakes, NJ, USA) with DMEM supplemented with 10% FBS and 10% penicillin and streptomycin at 37 °C in a 5% CO2 atmosphere. After incubation for 4 days at 37 °C, the medium was removed, and DMEM with 10% FBS containing 1 mM KA-BSH, BSH, or BPA was added to each dish. The cells were incubated for an additional 24 h at 37 °C. The medium was then removed, and the cells were washed twice with 4 °C phosphate-buffered saline (PBS) and detached with trypsin–ethylenediamine tetraacetic acid solution. PBS was then added, and cells were digested overnight with 1 N nitric acid solution (Wako Pure Chemical Industries, Osaka, Japan), and ^10B uptake was determined by inductively coupled plasma atomic emission spectrometry (ICP-AES) using an iCAP6000 emission spectrometer (Hitachi High-Technologies, Tokyo, Japan).

[2] = test system: F98 rat glioma cells; test: Cell viability assay (WST-8) in F98 cells; format: cell-based; conditions: WST-8 test, read-out: IC50 (cytotoxicity)
Experimental: The cytotoxicity of KA-BSH was assayed using the water soluble tetrazolium (WST)-8 assay with a cell-counting kit (Wako Pure Chemicals, Osaka, Japan) following a modified version of the manufacturer-provided protocols. Relative cell survival was calculated according to Equation (1):(1) Relative cell survival (%)=absorbance value of compound treated well/absorbance value of untreated well×100

[3] = test system: F98 glioma bearing rats; test: Biodistribution in F98 glioma bearing rats (ICP-AES); format: in vivo, rat; conditions: iv
From the text: All animal experimental procedures were approved by the Animal Use Review Board and Ethical Committee of Osaka Medical College (No. 25092, 28 October 2015) and Kyoto University Research Reactor Institute (KURRI, No. 25030-13, 1 April 2015), and performed following the Guide for the Care and Use of Laboratory Animals. Eight-week-old, male Fischer 344 rats weighing between 200 and 250 g were used (Japan SLC, Inc. Shizuoka, Japan). Rats were anesthetized with an intraperitoneal (ip) injection of a mixture of medetomidine 0.15 mg, midazolam 2 mg, and butorphanol 2.5 mg/kg body weight (bw). The head of each rat was fixed with a stereotactic frame (Model 900; David Kopf Instruments, Tujunga, CA, USA). The scalp was incised at the midline and a small burr hole was drilled into the skull (1 mm posterior and 4 mm right-lateral to the bregma), using an electric drill. And then, F98 glioma cells were injected into the brain using a 25 µL Hamilton microsyringe with a 26-gauge needle (model 1700 RN, Hamilton Bonaduz AG, Bonaduz, Switzerland). The needle was inserted at a 5 mm depth from the skull and F98 cells were diluted in 10 µL of DMEM containing low-gelling temperature agarose at a concentration of either 10^3 for therapeutic experiments or 10^5 cells for biodistribution experiments. They were injected over 30 s using an automatic infuser pump. The needle entry hole was immediately sealed with bone wax and the incised scalp was closed with 3-0 silk sutures (Ethicon, North Ryde, NSW). After surgery, all animals were given atipamezole hydrochloride (0.15 mg/kg bw, ip).
Biodistribution studies were performed in Fischer rats bearing intracerebral implants of F98 rat glioma cells. 10–13 days after tumor implantation of 10^5 F98 glioma cells, when signs of a progressively growing tumor were evident (weight loss, lethargy, hunching, and ataxia), biodistribution studies were initiated at which time the animals had tumors weighing 90–180 mg. […] To compare its biodistribution with that of BPA or BSH, another group of rats received an iv injection of BPA at a concentration of 10 mg ^10B/kg bw or BSH at a concentration of 30 mg ^10B/kg bw. Biodistribution was determined 1 and 3 h after termination of iv injection. Animals were euthanized by an overdose of sevoflurane following which tumors and normal tissues, consisting of ipsilateral brain, contralateral brain, blood, heart, lung, liver, spleen, kidney, skin, and muscle, were removed and weighed for ^10B determination by ICP-AES.

Q: What does the source list for `N[C@@H](Cc1ccc(B(O)O)cc1)C(=O)O` [BPA, boronophenylalanine, reference compound]?
A: 10B concentration of F98 rat glioma cells [1]: 0.654 ± 0.062 µg 10B/10^7 cells; pIC50 [2]: < 1.70; 10B concentration, Blood ([3]; 10 mg 10B/kg, 1 h): 6.65 µg 10B/g; 10B concentration, Contralateral brain ([3]; 10 mg 10B/kg, 1 h): 3.19 µg 10B/g; 10B concentration, Heart ([3]; 10 mg 10B/kg, 1 h): 6.12 µg 10B/g; 10B concentration, Ipsilateral brain ([3]; 10 mg 10B/kg, 1 h): 2.94 µg 10B/g; 10B concentration, Kidney ([3]; 10 mg 10B/kg, 1 h): 27.57 µg 10B/g; 10B concentration, Liver ([3]; 10 mg 10B/kg, 1 h): 5.40 µg 10B/g; 10B concentration, Lung ([3]; 10 mg 10B/kg, 1 h): 5.74 µg 10B/g; 10B concentration, Muscle ([3]; 10 mg 10B/kg, 1 h): 5.25 µg 10B/g; 10B concentration, Skin ([3]; 10 mg 10B/kg, 1 h): 7.22 µg 10B/g; 10B concentration, Spleen ([3]; 10 mg 10B/kg, 1 h): 7.58 µg 10B/g; 10B concentration, Tumor ([3]; 10 mg 10B/kg, 1 h): 13.54 µg 10B/g and 13.54 ± 4.82 µg 10B/g; T/Bl (tumor to blood ratio) ([3]; 10 mg 10B/kg, 1 h): 2.00; T/Br (tumor to normal contralateral brain ratio) ([3]; 10 mg 10B/kg, 1 h): 4.21; 10B concentration, Blood ([3]; 10 mg 10B/kg, 3 h): 4.41 µg 10B/g; 10B concentration, Contralateral brain ([3]; 10 mg 10B/kg, 3 h): 2.95 µg 10B/g; 10B concentration, Heart ([3]; 10 mg 10B/kg, 3 h): 3.92 µg 10B/g; 10B concentration, Ipsilateral brain ([3]; 10 mg 10B/kg, 3 h): 3.29 µg 10B/g; 10B concentration, Kidney ([3]; 10 mg 10B/kg, 3 h): 11.69 µg 10B/g; 10B concentration, Liver ([3]; 10 mg 10B/kg, 3 h): 3.54 µg 10B/g; 10B concentration, Lung ([3]; 10 mg 10B/kg, 3 h): 4.12 µg 10B/g; 10B concentration, Muscle ([3]; 10 mg 10B/kg, 3 h): 4.89 µg 10B/g; 10B concentration, Skin ([3]; 10 mg 10B/kg, 3 h): 4.80 µg 10B/g; 10B concentration, Spleen ([3]; 10 mg 10B/kg, 3 h): 6.02 µg 10B/g; 10B concentration, Tumor ([3]; 10 mg 10B/kg, 3 h): 11.05 µg 10B/g; T/Bl (tumor to blood ratio) ([3]; 10 mg 10B/kg, 3 h): 2.53; T/Br (tumor to normal contralateral brain ratio) ([3]; 10 mg 10B/kg, 3 h): 3.83

Q: How did the “10B concentration of F98 rat glioma cells” value [1] turn out when “dodecaboranethiol [BSH, reference compound]” was run?
A: 0.508 ± 0.072 µg 10B/10^7 cells

Q: What about the pIC50 [2] of the same molecule?
A: 2.77

Q: And the “10B concentration, Blood” value ([3]; 30 mg 10B/kg, 1 h)?
A: 19.17 µg 10B/g

Q: What about the “10B concentration, Contralateral brain” value ([3]; 30 mg 10B/kg, 1 h) of the same molecule?
A: 0.32 µg 10B/g

Q: What about the “10B concentration, Heart” value ([3]; 30 mg 10B/kg, 1 h) of the same molecule?
A: 3.25 µg 10B/g

Q: What about the “10B concentration, Ipsilateral brain” value ([3]; 30 mg 10B/kg, 1 h) of the same molecule?
A: 0.44 µg 10B/g

Q: What about the “10B concentration, Kidney” value ([3]; 30 mg 10B/kg, 1 h) of the same molecule?
A: 20.84 µg 10B/g

Q: What about the “10B concentration, Liver” value ([3]; 30 mg 10B/kg, 1 h) of the same molecule?
A: 20.81 µg 10B/g

Q: And the “10B concentration, Lung” value ([3]; 30 mg 10B/kg, 1 h)?
A: 12.70 µg 10B/g

Q: What about the “10B concentration, Muscle” value ([3]; 30 mg 10B/kg, 1 h) of the same molecule?
A: 5.25 µg 10B/g

Q: And the “10B concentration, Skin” value ([3]; 30 mg 10B/kg, 1 h)?
A: 7.99 µg 10B/g

Q: What about the “10B concentration, Spleen” value ([3]; 30 mg 10B/kg, 1 h) of the same molecule?
A: 5.68 µg 10B/g

Q: What about the “10B concentration, Tumor” value ([3]; 30 mg 10B/kg, 1 h) of the same molecule?
A: 5.49 µg 10B/g and 5.49 ± 0.25 µg 10B/g

Q: And the “T/Bl (tumor to blood ratio)” value ([3]; 30 mg 10B/kg, 1 h)?
A: 0.29

Q: And the “T/Br (tumor to normal contralateral brain ratio)” value ([3]; 30 mg 10B/kg, 1 h)?
A: 17.61

Q: What about the “10B concentration, Blood” value ([3]; 30 mg 10B/kg, 3 h) of the same molecule?
A: 5.16 µg 10B/g

Q: What about the “10B concentration, Contralateral brain” value ([3]; 30 mg 10B/kg, 3 h) of the same molecule?
A: 0.24 µg 10B/g

Q: And the “10B concentration, Heart” value ([3]; 30 mg 10B/kg, 3 h)?
A: 1.15 µg 10B/g

Q: And the “10B concentration, Ipsilateral brain” value ([3]; 30 mg 10B/kg, 3 h)?
A: 0.36 µg 10B/g

Q: What about the “10B concentration, Kidney” value ([3]; 30 mg 10B/kg, 3 h) of the same molecule?
A: 10.83 µg 10B/g

Q: What about the “10B concentration, Liver” value ([3]; 30 mg 10B/kg, 3 h) of the same molecule?
A: 8.10 µg 10B/g

Q: And the “10B concentration, Lung” value ([3]; 30 mg 10B/kg, 3 h)?
A: 4.92 µg 10B/g

Q: What about the “10B concentration, Muscle” value ([3]; 30 mg 10B/kg, 3 h) of the same molecule?
A: 0.87 µg 10B/g

Q: What about the “10B concentration, Skin” value ([3]; 30 mg 10B/kg, 3 h) of the same molecule?
A: 4.00 µg 10B/g

Q: What about the “10B concentration, Spleen” value ([3]; 30 mg 10B/kg, 3 h) of the same molecule?
A: 2.74 µg 10B/g

Q: And the “10B concentration, Tumor” value ([3]; 30 mg 10B/kg, 3 h)?
A: 3.01 µg 10B/g

Q: And the “T/Bl (tumor to blood ratio)” value ([3]; 30 mg 10B/kg, 3 h)?
A: 0.61

Q: And the “T/Br (tumor to normal contralateral brain ratio)” value ([3]; 30 mg 10B/kg, 3 h)?
A: 12.71
